Measured values from patent publication US11331327B2, “Antibacterial use of halogenated salicylanilides” (UNION therapeutics A/S, priority 2014, dated 2022).
Values after ≈ are worked out from the molar mass of the structure shown.

Tested on: S. aureus clinical isolates and S. aureus ATCC 29213
Test: MIC assay according to CLSI criteria, Example 2, S. aureus strains
Type: cell-based, Staphylococcus aureus
Details: Staphylococcus aureus
Outline: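 Wells received roughly 5×10^5 S. aureus cells taken in exponential growth, in cation-adjusted MH broth. Plates held aerobically at 37° C for 18 hours.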

## C=C[C@]1(C)C[C@@H](OC(=O)CS[C@@H]2C[C@H]3CC[C@@H](C2)N3C)[C@]2(C)[C@H](C)CC[C@]3(CCC(=O)[C@H]32)[C@@H](C)[C@@H]1O [Retapamulin]
ATCC29213, strain 9-1862936
  MIC: 0.03 µg/mL (≈ 0.0579 µM)
ATCC29213, strain 9-2625962
  MIC: 0.03 µg/mL (≈ 0.0579 µM)
ATCC29213, strain 9-2642158
  MIC: 0.06 µg/mL (≈ 0.116 µM)
ATCC29213, strain 9-2955245
  MIC: 0.06 µg/mL (≈ 0.116 µM)
ATCC29213, strain 9-26422166
  MIC: 0.03 µg/mL (≈ 0.0579 µM)
ATCC29213, strain 000040C
  MIC: 0.03 µg/mL (≈ 0.0579 µM)
ATCC29213, strain 000041C
  MIC: 0.03 µg/mL (≈ 0.0579 µM)
ATCC29213, strain 000274T
  MIC: 0.06 µg/mL (≈ 0.116 µM)
ATCC29213, strain 114660U
  MIC: 0.06 µg/mL (≈ 0.116 µM)
ATCC29213, strain 115015T
  MIC: 0.06 µg/mL (≈ 0.116 µM)
ATCC29213, strain 115242C
  MIC: 0.03 µg/mL (≈ 0.0579 µM)
ATCC29213, strain 115263C
  MIC: 0.03 µg/mL (≈ 0.0579 µM)
ATCC29213, strain 115268C
  MIC: 0.03 µg/mL (≈ 0.0579 µM)
ATCC29213, strain 115273C
  MIC: 0.03 µg/mL (≈ 0.0579 µM)
ATCC29213, strain 115295C
  MIC: 0.03 µg/mL (≈ 0.0579 µM)
ATCC29213, strain 115303C
  MIC: 0.03 µg/mL (≈ 0.0579 µM)
ATCC29213, strain 115370U
  MIC: 0.06 µg/mL (≈ 0.116 µM)
ATCC29213, strain 115427C
  MIC: 0.03 µg/mL (≈ 0.0579 µM)
ATCC29213, strain 115445C
  MIC: 0.03 µg/mL (≈ 0.0579 µM)
ATCC29213, strain 115561C
  MIC: 0.03 µg/mL (≈ 0.0579 µM)
ATCC29213, strain 115584D
  MIC: 0.06 µg/mL (≈ 0.116 µM)
ATCC29213, strain 115628T
  MIC: 0.03 µg/mL (≈ 0.0579 µM)
ATCC29213, strain 115690C
  MIC: 0.25 µg/mL (≈ 0.483 µM)
ATCC29213, strain 115691T
  MIC: 0.03 µg/mL (≈ 0.0579 µM)
ATCC29213, strain 115740E
  MIC: 0.06 µg/mL (≈ 0.116 µM)
ATCC29213, strain 115810E
  MIC: 0.06 µg/mL (≈ 0.116 µM)
ATCC29213, strain 115903T
  MIC: 0.03 µg/mL (≈ 0.0579 µM)
ATCC29213, strain 116122T
  MIC: 0.03 µg/mL (≈ 0.0579 µM)
ATCC29213, strain ATCC 29213
  MIC: 0.03 µg/mL (≈ 0.0579 µM)
ATCC29213, strain E5-1029252
  MIC: 0.03 µg/mL (≈ 0.0579 µM)
ATCC29213, strain E5-1029558
  MIC: 0.03 µg/mL (≈ 0.0579 µM)
ATCC29213, strain E5-1030440
  MIC: 0.06 µg/mL (≈ 0.116 µM)
ATCC29213, strain E5-1030469
  MIC: 0.03 µg/mL (≈ 0.0579 µM)
ATCC29213, strain E5-1030472
  MIC: 0.06 µg/mL (≈ 0.116 µM)
ATCC29213, strain E5-1030482
  MIC: 0.02 µg/mL (≈ 0.0386 µM)
ATCC29213, strain E5-1033076 (first line, r202)
  MIC: 0.03 µg/mL (≈ 0.0579 µM)
ATCC29213, strain E5-1033076 (second line, r203)
  MIC: 0.03 µg/mL (≈ 0.0579 µM)
ATCC29213, strain E5-1033088
  MIC: 0.03 µg/mL (≈ 0.0579 µM)
ATCC29213, strain E5-1033091
  MIC: 0.02 µg/mL (≈ 0.0386 µM)
ATCC29213, strain E5-1035277
  MIC: 0.03 µg/mL (≈ 0.0579 µM)
ATCC29213, strain E5-1035284
  MIC: 0.03 µg/mL (≈ 0.0579 µM)
ATCC29213, strain E5-1035775
  MIC: 0.06 µg/mL (≈ 0.116 µM)
ATCC29213, strain E5-1035779
  MIC: 0.03 µg/mL (≈ 0.0579 µM)
ATCC29213, strain E5-1037958
  MIC: 0.06 µg/mL (≈ 0.116 µM)
ATCC29213, strain E5-1037971
  MIC: 0.03 µg/mL (≈ 0.0579 µM)
ATCC29213, strain E5-1038279
  MIC: 0.03 µg/mL (≈ 0.0579 µM)
ATCC29213, strain E5-1038286
  MIC: 0.06 µg/mL (≈ 0.116 µM)
ATCC29213, strain E5-1038294
  MIC: 0.03 µg/mL (≈ 0.0579 µM)
ATCC29213, strain E5-1039684
  MIC: 0.06 µg/mL (≈ 0.116 µM)
ATCC29213, strain E5-1039697
  MIC: 0.06 µg/mL (≈ 0.116 µM)
ATCC29213, strain E5-1041977
  MIC: 0.03 µg/mL (≈ 0.0579 µM)
ATCC29213, strain E5-1041979
  MIC: 0.03 µg/mL (≈ 0.0579 µM)
ATCC29213, strain E5-1041980
  MIC: 0.03 µg/mL (≈ 0.0579 µM)
ATCC29213, strain E5-1041987
  MIC: 0.03 µg/mL (≈ 0.0579 µM)
ATCC29213, strain E5-1043184
  MIC: 0.03 µg/mL (≈ 0.0579 µM)
ATCC29213, strain E5-1043668
  MIC: 0.06 µg/mL (≈ 0.116 µM)
ATCC29213, strain E5-1045179
  MIC: 0.06 µg/mL (≈ 0.116 µM)
ATCC29213, strain E5-1046019
  MIC: 0.03 µg/mL (≈ 0.0579 µM)
ATCC29213, strain E5-1046020
  MIC: 0.06 µg/mL (≈ 0.116 µM)
ATCC29213, strain E5-1046039
  MIC: 0.06 µg/mL (≈ 0.116 µM)
ATCC29213, strain E5-1046070
  MIC: 0.03 µg/mL (≈ 0.0579 µM)
ATCC29213, strain E5-1046074
  MIC: 0.06 µg/mL (≈ 0.116 µM)
ATCC29213, strain E5-1046085
  MIC: 0.06 µg/mL (≈ 0.116 µM)
ATCC29213, strain E5-1046096
  MIC: 0.06 µg/mL (≈ 0.116 µM)
ATCC29213, strain E5-1046296
  MIC: 0.03 µg/mL (≈ 0.0579 µM)
ATCC29213, strain E5-1046297
  MIC: 0.06 µg/mL (≈ 0.116 µM)
ATCC29213, strain E5-1046298
  MIC: 0.03 µg/mL (≈ 0.0579 µM)
ATCC29213, strain E5-1046723
  MIC: 0.06 µg/mL (≈ 0.116 µM)
ATCC29213, strain E5-1047585
  MIC: 0.03 µg/mL (≈ 0.0579 µM)
ATCC29213, strain E5-1047606
  MIC: 0.03 µg/mL (≈ 0.0579 µM)
ATCC29213, strain E5-1047924
  MIC: 0.03 µg/mL (≈ 0.0579 µM)
ATCC29213, strain E5-1048204
  MIC: 0.03 µg/mL (≈ 0.0579 µM)
ATCC29213, strain E5-1048428
  MIC: 0.06 µg/mL (≈ 0.116 µM)
ATCC29213, strain E5-1048654
  MIC: 0.06 µg/mL (≈ 0.116 µM)
ATCC29213, strain E5-1048670
  MIC: 0.06 µg/mL (≈ 0.116 µM)
ATCC29213, strain EEFIC 01
  MIC: 0.03 µg/mL (≈ 0.0579 µM)
ATCC29213, strain EEFIC 02
  MIC: 0.03 µg/mL (≈ 0.0579 µM)
ATCC29213, strain K000772
  MIC: 0.06 µg/mL (≈ 0.116 µM)
ATCC29213, strain K000796
  MIC: 0.03 µg/mL (≈ 0.0579 µM)
ATCC29213, strain K000863
  MIC: 0.03 µg/mL (≈ 0.0579 µM)
ATCC29213, strain K000864
  MIC: 0.03 µg/mL (≈ 0.0579 µM)
ATCC29213, strain K000866
  MIC: 0.03 µg/mL (≈ 0.0579 µM)
ATCC29213, strain K115498
  MIC: 0.03 µg/mL (≈ 0.0579 µM)
ATCC29213, strain K115688
  MIC: 0.03 µg/mL (≈ 0.0579 µM)
ATCC29213, strain K115689
  MIC: 0.03 µg/mL (≈ 0.0579 µM)
ATCC29213, strain R000019
  MIC: 0.06 µg/mL (≈ 0.116 µM)
ATCC29213, strain R000020
  MIC: 0.03 µg/mL (≈ 0.0579 µM)
ATCC29213, strain R000024
  MIC: 0.06 µg/mL (≈ 0.116 µM)
ATCC29213, strain U115579
  MIC: 0.06 µg/mL (≈ 0.116 µM)
ATCC 29213 / MRSA, strain MRSA 01
  MIC: 0.06 µg/mL (≈ 0.116 µM)
ATCC 29213 / MRSA, strain MRSA 02
  MIC: 0.06 µg/mL (≈ 0.116 µM)
ATCC 29213 / MRSA, strain MRSA 03
  MIC: 0.03 µg/mL (≈ 0.0579 µM)
ATCC 29213 / MRSA, strain MRSA 04
  MIC: 0.06 µg/mL (≈ 0.116 µM)
ATCC 29213 / MRSA, strain MRSA 05
  MIC: 0.03 µg/mL (≈ 0.0579 µM)
ATCC 29213 / MRSA, strain MRSA 06
  MIC: 0.03 µg/mL (≈ 0.0579 µM)
ATCC 29213 / MRSA, strain MRSA 07
  MIC: 0.06 µg/mL (≈ 0.116 µM)
ATCC 29213 / MRSA, strain MRSA 08
  MIC: 0.03 µg/mL (≈ 0.0579 µM)
ATCC 29213 / MRSA, strain MRSA 09
  MIC: 0.06 µg/mL (≈ 0.116 µM)
ATCC 29213 / MRSA, strain MRSA 10
  MIC: 0.06 µg/mL (≈ 0.116 µM)
ATCC 29213 / MRSA, strain MRSA 11
  MIC: 0.06 µg/mL (≈ 0.116 µM)
ATCC 29213 / MRSA, strain MRSA 12
  MIC: 0.03 µg/mL (≈ 0.0579 µM)
ATCC 29213 / MRSA, strain MRSA 13
  MIC: 0.06 µg/mL (≈ 0.116 µM)
ATCC 29213 / MRSA, strain MRSA 14
  MIC: 0.03 µg/mL (≈ 0.0579 µM)
